From ChEMBL document CHEMBL1926646 (Bioorg Med Chem, 2011)

Experiments:
[1] = Plasma protein binding in dog at 2000 ng/ml after 0.5 hrs by LC-MS/MS analysis; type: ADME, cell-free, Canis lupus familiaris; settings: read-out: PPB (converted)
Salmonella typhimurium = test: Mutagenic activity in Salmonella Typhimurium by Ames test; type: toxicity, organism-based; settings: salmonella enterica subsp. enterica serovar typhimurium
Rattus norvegicus [2] = test: Inhibition of plasma DPP-4 activity in Wistar/ST rat at 0.1 mg/kg, po pretreated 30 mins before glucose challenge measured for 2 hrs during oral glucose tolerance test; type: functional
[3] = Intrinsic clearance in monkey liver microsomes; type: ADME, Macaca mulatta, Microsome; settings: rhesus monkey
Rattus norvegicus [4] = test: Inhibition of plasma DPP-4 activity in Wistar/ST rat at 3 mg/kg, po pretreated 30 mins before glucose challenge measured for 2 hrs during oral glucose tolerance test; type: functional
[5] = Terminal half life in Beagle dog at 0.5 mg/kg, po; type: ADME, organism-based, Canis lupus familiaris; design: dose 0.5 mg/kg, route oral; settings: in vivo, read-out: beta t1/2 (converted)
[6] = Plasma protein binding in dog at 20 ng/ml after 0.5 hrs by LC-MS/MS analysis; type: ADME, cell-free, Canis lupus familiaris; settings: read-out: PPB (converted)
[7] = Drug excretion in bile-duct cannulated Sprague-Dawley rat bile assessed as unchanged drug at 1 mg/kg, iv measured over 24 hrs; type: ADME, organism-based; design: dose 1 mg/kg, route intravenous; settings: read-out: AE
Canis familiaris [8] = test: Volume of distribution at steady state in Beagle dog at 0.2 mg/kg, iv; type: ADME, organism-based, Canis lupus familiaris; design: dose 0.2 mg/kg, route intravenous; settings: in vivo
Cytochrome P450 2C19 = Cytochrome P450 2C19 (Homo sapiens, UniProt P33261); test: Inhibition of CYP2C19; type: ADME
[9] = Oral bioavailability in Sprague-Dawley rat at 10 mg/kg; type: ADME, organism-based; settings: in vivo
[10] = target: Voltage-gated inwardly rectifying potassium channel KCNH2 (Homo sapiens, UniProt Q12809); test: Inhibition of human ERG expressed in HEK293 cells by patch clamp assay; type: cell-based
[11] = Cmax in Beagle dog at 0.5 mg/kg, po; type: ADME, organism-based, Canis lupus familiaris; design: dose 0.5 mg/kg, route oral; settings: in vivo
Dipeptidyl peptidase 8 = Dipeptidyl peptidase 8 (Homo sapiens, UniProt Q6V1X1); test: Inhibition of human recombinant DPP-8 expressed in Sf9 cells using H-Gly-Pro-AMC as substrate preincubated for 30 mins before substrate addition measured after 20 mins by fluorescence assay
Cytochrome P450 2C9 [12] = target: T1, Cytochrome P450 2C9 (Homo sapiens, UniProt P11712); test: Induction of CYP2C9 at 50 uM; type: ADME
[13] = Plasma protein binding in rat at 2000 ng/ml after 0.5 hrs by LC-MS/MS analysis; type: ADME, cell-free; settings: read-out: PPB (converted)
[14] = Tmax in Sprague-Dawley rat at 10 mg/kg, po; type: ADME, organism-based; design: dose 10 mg/kg, route oral; settings: in vivo
[15] = Total clearance in Sprague-Dawley rat at 1 mg/kg, iv; type: ADME, organism-based; design: dose 1 mg/kg, route intravenous; settings: in vivo
Cytochrome P450 2C8 = target: T2, Cytochrome P450 2C8 (Homo sapiens, UniProt P10632); test: Induction of CYP2C8 at 50 uM; type: ADME
T2 sequence (P10632 whole entry): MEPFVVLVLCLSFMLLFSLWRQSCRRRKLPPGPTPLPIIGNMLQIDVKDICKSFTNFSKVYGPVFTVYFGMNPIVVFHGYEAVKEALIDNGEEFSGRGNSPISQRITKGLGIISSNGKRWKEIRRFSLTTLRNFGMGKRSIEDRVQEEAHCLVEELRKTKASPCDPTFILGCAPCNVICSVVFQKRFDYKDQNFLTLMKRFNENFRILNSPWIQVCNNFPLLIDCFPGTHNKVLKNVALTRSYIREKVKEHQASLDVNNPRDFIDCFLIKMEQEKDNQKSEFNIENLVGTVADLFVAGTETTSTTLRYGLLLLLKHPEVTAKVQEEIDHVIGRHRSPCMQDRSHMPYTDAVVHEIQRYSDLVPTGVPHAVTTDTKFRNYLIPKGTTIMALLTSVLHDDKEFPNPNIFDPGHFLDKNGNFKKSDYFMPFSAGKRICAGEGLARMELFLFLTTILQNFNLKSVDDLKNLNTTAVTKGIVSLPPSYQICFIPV

[16] = Plasma protein binding in rat at 20 ng/ml after 0.5 hrs by LC-MS/MS analysis; type: ADME, cell-free; settings: read-out: PPB (converted)
Rattus norvegicus [17] = test: Volume of distribution at steady state in Sprague-Dawley rat at 1 mg/kg, iv; type: ADME, organism-based; design: dose 1 mg/kg, route intravenous; settings: in vivo
[18] = Intrinsic clearance in human liver microsomes; type: ADME, Microsome
[19] = Cmax in Sprague-Dawley rat at 10 mg/kg, po; type: ADME, organism-based; design: dose 10 mg/kg, route oral; settings: in vivo
[20] = Tmax in Beagle dog at 0.5 mg/kg, po; type: ADME, organism-based, Canis lupus familiaris; design: dose 0.5 mg/kg, route oral; settings: in vivo
[21] = Oral bioavailability in Beagle dog at 0.5 mg/kg; type: ADME, organism-based, Canis lupus familiaris; settings: in vivo
[22] = Plasma protein binding in human at 20 ng/ml after 0.5 hrs by LC-MS/MS analysis; type: ADME, cell-free; settings: read-out: PPB (converted)
[23] = Plasma protein binding in human at 2000 ng/ml after 0.5 hrs by LC-MS/MS analysis; type: ADME, cell-free; settings: read-out: PPB (converted)
Cytochrome P450 3A4 [24] = target: T3, Cytochrome P450 3A4 (Homo sapiens, UniProt P08684); test: Induction of CYP3A4 at 50 uM; type: ADME
[25] = Drug excretion in dog urine assessed as unchanged drug at 1 mg/kg, iv measured over 24 hrs; type: ADME, organism-based, Canis lupus familiaris; design: dose 1 mg/kg, route intravenous; settings: read-out: AE
Canis familiaris [26] = test: AUC in Beagle dog at 0.5 mg/kg, po; type: ADME, organism-based, Canis lupus familiaris, Plasma; design: dose 0.5 mg/kg, route oral; settings: in vivo
Cytochrome P450 2D6 = Cytochrome P450 2D6 (Homo sapiens, UniProt P10635); test: Inhibition of CYP2D6; type: ADME
[27] = Total clearance in Beagle dog at 0.2 mg/kg, iv; type: ADME, organism-based, Canis lupus familiaris; design: dose 0.2 mg/kg, route intravenous; settings: in vivo
[28] = Drug excretion in bile-duct cannulated Sprague-Dawley rat urine assessed as unchanged drug at 1 mg/kg, iv measured over 24 hrs; type: ADME, organism-based; design: dose 1 mg/kg, route intravenous; settings: read-out: AE
[29] = Drug excretion in bile-duct cannulated Sprague-Dawley rat urine assessed as unchanged drug at 5 mg/kg, iv measured over 24 hrs; type: ADME, organism-based; design: dose 5 mg/kg, route intravenous; settings: read-out: AE
Cytochrome P450 1A2 [30] = target: T4, Cytochrome P450 1A2 (Homo sapiens, UniProt P05177); test: Induction of CYP1A2 at 50 uM; type: ADME
T4 sequence (P05177 whole entry): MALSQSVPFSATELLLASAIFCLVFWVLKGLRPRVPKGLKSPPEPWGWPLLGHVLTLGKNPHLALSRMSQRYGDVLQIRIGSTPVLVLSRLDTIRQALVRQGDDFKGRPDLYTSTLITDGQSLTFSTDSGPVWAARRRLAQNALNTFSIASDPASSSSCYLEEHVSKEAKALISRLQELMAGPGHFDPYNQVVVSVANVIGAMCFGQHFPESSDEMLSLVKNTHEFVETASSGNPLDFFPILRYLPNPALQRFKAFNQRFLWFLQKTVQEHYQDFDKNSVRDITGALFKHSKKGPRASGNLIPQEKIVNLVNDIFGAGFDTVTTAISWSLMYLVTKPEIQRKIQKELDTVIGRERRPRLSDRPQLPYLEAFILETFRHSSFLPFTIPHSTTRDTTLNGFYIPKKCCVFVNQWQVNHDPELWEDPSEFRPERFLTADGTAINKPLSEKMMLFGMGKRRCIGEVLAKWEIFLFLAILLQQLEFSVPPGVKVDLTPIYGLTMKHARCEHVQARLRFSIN

[31] = Intrinsic clearance in rat liver microsomes; type: ADME, Microsome
[32] = Terminal half life in Sprague-Dawley rat at 10 mg/kg, po; type: ADME, organism-based; design: dose 10 mg/kg, route oral; settings: in vivo, read-out: beta t1/2 (converted)
[33] = Drug level in Sprague-Dawley rat plasma at 3 mg/kg at Tmax; type: ADME, organism-based; design: dose 3 mg/kg; settings: read-out: Drug uptake
[34] = Drug excretion in bile-duct cannulated Sprague-Dawley rat bile assessed as unchanged drug at 5 mg/kg, iv measured over 24 hrs; type: ADME, organism-based; design: dose 5 mg/kg, route intravenous; settings: read-out: AE
Cytochrome P450 1A2 [35] = target: T4, Cytochrome P450 1A2; test: Inhibition of CYP1A2; type: ADME
Cytochrome P450 3A4 [36] = target: T3, Cytochrome P450 3A4; test: Inhibition of CYP3A4; type: ADME
Dipeptidyl peptidase 9 = Dipeptidyl peptidase 9 (Homo sapiens, UniProt Q86TI2); test: Inhibition of human recombinant DPP-9 expressed in Sf9 cells using H-Gly-Pro-AMC as substrate preincubated for 30 mins before substrate addition measured after 20 mins by fluorescence assay
[37] = Drug excretion in dog feces assessed as unchanged drug at 1 mg/kg, iv measured over 24 hrs; type: ADME, organism-based, Canis lupus familiaris; design: dose 1 mg/kg, route intravenous; settings: faeces, read-out: AE
Rattus norvegicus [38] = test: AUC in Sprague-Dawley rat at 10 mg/kg, po; type: ADME, organism-based, Plasma; design: dose 10 mg/kg, route oral; settings: in vivo
[39] = Tmax in Sprague-Dawley rat at 3 mg/kg, po; type: ADME, organism-based; design: dose 3 mg/kg, route oral; settings: in vivo
[40] = Cmax in Sprague-Dawley rat at 3 mg/kg, po; type: ADME, organism-based; design: dose 3 mg/kg, route oral; settings: in vivo
Cytochrome P450 2C9 [41] = target: T1, Cytochrome P450 2C9; test: Inhibition of CYP2C9; type: ADME
[42] = Intrinsic clearance in dog liver microsomes; type: ADME, Canis lupus familiaris, Microsome

T3 sequence (P08684 whole entry): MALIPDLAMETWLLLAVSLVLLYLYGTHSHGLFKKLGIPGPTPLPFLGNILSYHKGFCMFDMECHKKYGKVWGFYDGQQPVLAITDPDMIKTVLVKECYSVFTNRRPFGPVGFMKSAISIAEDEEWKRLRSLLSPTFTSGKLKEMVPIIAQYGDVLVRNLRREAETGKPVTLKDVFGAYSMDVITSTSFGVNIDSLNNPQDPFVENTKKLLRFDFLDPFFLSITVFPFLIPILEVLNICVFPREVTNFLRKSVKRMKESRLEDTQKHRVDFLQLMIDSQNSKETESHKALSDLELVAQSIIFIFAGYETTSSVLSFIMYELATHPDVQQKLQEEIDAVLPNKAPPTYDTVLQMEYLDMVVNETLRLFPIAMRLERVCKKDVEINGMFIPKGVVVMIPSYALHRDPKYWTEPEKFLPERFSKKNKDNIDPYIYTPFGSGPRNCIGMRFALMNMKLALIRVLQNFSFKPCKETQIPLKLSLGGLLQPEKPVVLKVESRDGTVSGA
T1 sequence (P11712 whole entry): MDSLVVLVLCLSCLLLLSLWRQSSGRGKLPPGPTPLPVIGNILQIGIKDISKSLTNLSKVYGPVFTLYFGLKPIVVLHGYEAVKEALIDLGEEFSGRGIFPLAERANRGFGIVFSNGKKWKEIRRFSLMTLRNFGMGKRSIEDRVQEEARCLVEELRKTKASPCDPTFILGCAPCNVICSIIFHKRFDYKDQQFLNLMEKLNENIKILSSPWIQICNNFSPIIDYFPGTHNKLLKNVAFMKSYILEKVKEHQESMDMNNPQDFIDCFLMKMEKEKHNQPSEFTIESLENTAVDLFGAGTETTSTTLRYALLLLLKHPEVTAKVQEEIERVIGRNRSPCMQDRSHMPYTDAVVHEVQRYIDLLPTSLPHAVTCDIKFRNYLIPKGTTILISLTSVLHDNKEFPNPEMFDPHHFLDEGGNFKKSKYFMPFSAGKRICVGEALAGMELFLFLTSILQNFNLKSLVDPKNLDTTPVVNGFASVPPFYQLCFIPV
Cytochrome P450 2D6, sequence (P10635 whole entry): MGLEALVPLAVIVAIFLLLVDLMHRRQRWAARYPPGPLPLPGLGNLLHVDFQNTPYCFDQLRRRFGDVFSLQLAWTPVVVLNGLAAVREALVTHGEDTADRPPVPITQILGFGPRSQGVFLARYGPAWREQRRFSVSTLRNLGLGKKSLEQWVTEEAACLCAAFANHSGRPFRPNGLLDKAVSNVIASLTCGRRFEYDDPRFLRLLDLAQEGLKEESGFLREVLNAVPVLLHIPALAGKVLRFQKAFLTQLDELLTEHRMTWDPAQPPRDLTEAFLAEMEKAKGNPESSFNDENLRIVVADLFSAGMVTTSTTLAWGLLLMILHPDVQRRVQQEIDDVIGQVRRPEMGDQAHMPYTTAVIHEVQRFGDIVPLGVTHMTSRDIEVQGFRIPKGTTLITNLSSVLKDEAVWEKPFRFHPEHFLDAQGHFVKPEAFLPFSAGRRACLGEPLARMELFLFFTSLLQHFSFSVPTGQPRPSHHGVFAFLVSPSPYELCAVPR
Dipeptidyl peptidase 8, sequence (Q6V1X1 whole entry): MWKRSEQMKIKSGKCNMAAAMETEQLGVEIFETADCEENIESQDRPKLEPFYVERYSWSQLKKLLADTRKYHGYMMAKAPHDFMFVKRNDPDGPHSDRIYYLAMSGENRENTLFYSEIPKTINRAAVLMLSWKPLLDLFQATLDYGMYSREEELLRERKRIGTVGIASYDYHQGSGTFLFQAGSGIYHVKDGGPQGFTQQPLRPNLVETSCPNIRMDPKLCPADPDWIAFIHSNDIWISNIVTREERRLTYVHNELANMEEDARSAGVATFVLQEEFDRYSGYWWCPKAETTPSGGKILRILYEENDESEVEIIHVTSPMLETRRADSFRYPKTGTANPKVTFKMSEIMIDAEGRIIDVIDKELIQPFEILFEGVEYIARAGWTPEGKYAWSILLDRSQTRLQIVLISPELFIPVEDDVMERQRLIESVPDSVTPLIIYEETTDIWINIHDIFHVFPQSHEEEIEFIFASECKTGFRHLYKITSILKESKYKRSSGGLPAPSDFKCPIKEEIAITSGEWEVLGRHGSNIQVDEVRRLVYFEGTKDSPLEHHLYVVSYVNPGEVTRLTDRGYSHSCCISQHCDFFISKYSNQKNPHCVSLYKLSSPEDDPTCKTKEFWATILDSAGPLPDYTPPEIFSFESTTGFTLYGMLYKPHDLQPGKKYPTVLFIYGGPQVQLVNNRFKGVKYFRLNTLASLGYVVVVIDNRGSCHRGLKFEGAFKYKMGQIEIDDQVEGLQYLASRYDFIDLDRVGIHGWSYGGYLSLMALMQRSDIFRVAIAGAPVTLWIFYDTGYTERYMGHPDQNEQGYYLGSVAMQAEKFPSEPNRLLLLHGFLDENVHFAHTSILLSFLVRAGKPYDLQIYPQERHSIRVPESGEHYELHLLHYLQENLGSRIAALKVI
Cytochrome P450 2C19, sequence (P33261 whole entry): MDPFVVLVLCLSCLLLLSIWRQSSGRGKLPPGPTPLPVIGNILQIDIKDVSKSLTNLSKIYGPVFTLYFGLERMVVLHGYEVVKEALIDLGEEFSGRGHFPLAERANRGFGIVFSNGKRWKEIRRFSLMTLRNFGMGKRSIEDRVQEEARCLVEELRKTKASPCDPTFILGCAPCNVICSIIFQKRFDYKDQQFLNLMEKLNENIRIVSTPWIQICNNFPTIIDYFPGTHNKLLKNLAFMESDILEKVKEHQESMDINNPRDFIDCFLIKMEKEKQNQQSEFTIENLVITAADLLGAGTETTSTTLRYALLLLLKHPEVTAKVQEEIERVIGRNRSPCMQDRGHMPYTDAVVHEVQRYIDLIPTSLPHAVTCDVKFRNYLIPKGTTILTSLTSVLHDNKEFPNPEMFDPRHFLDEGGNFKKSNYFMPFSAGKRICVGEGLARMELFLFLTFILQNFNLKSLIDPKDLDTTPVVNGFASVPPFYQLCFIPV
Voltage-gated inwardly rectifying potassium channel KCNH2, sequence (Q12809 whole entry): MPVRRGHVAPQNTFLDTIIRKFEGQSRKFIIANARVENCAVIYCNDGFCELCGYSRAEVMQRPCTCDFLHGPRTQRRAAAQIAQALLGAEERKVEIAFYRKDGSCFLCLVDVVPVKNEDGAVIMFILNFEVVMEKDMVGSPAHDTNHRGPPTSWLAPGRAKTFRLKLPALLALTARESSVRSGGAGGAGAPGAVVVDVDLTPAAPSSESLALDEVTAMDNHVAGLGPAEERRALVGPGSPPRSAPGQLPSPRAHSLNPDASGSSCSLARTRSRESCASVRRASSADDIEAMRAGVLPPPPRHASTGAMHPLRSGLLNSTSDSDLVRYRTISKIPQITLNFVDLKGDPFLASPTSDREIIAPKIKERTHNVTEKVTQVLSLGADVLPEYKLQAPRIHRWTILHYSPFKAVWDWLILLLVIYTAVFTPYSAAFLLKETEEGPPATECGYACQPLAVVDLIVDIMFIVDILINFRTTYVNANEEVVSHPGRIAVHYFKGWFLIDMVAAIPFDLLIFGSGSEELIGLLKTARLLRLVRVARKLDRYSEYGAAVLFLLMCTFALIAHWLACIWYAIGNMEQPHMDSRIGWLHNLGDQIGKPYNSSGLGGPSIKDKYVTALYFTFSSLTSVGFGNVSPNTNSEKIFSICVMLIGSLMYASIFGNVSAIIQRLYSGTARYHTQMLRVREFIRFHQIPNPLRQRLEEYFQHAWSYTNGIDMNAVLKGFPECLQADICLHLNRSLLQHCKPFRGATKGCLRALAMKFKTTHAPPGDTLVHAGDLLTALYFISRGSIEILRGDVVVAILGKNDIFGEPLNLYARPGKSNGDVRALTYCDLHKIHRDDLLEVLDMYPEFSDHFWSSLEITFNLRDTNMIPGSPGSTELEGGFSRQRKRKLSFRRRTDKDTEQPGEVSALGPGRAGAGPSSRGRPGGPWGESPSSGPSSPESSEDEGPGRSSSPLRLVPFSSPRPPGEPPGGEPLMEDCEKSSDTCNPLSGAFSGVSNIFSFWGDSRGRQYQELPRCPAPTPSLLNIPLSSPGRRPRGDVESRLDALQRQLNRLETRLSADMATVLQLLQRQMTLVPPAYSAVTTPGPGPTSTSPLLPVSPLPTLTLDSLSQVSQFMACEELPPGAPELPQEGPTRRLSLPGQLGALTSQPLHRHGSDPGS
Dipeptidyl peptidase 9, sequence (Q86TI2 whole entry): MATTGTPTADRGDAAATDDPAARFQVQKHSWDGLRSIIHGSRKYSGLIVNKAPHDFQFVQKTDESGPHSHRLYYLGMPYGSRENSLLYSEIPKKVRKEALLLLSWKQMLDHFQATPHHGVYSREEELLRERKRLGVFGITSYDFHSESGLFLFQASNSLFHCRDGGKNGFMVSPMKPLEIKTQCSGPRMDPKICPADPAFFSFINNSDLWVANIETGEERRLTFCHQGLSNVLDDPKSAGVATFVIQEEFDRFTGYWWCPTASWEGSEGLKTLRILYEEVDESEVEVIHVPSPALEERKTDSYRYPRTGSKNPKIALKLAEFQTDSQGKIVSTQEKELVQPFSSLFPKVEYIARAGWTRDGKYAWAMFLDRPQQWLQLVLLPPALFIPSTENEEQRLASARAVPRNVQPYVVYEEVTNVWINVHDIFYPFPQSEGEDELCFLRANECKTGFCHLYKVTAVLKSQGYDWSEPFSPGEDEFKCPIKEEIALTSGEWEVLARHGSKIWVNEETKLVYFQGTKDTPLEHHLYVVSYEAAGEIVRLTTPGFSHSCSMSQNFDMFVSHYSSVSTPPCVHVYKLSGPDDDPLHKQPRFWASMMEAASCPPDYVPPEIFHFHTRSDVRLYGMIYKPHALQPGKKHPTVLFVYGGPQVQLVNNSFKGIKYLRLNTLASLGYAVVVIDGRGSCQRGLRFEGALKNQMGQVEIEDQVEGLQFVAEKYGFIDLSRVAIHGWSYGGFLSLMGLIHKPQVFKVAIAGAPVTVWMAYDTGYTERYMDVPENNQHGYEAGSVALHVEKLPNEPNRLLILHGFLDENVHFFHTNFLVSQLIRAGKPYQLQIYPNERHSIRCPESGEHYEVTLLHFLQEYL

fraction unbound at 0.5 h, 2000 ng/ml [1]: 0.482
CLint scaled [3]: 8.33 mL/min/kg
half-life [5]: 1 h
fraction unbound at 0.5 h, 20 ng/ml [6]: 0.352
Vdss (Canis familiaris [8]): 0.83 L/kg
IC50 (Cytochrome P450 2C19): > 10 µM
bioavailability [9]: 23%
Cmax [11]: 261 ng/mL
IC50 (Dipeptidyl peptidase 8): 68 µM
Activity (Cytochrome P450 2C9 [12]): Not Active
fraction unbound at 0.5 h, 2000 ng/ml [13]: 0.229
Tmax [14]: 0.8 h
clearance [15]: 33.3 mL/min/kg
Activity (Cytochrome P450 2C8): Not Active
fraction unbound at 0.5 h, 20 ng/ml [16]: 0.227
Vdss (Rattus norvegicus [17]): 0.68 L/kg
CLint scaled [18]: 5 mL/min/kg
Cmax [19]: 309 ng/mL
Tmax [20]: 1.5 h
bioavailability [21]: 100%
fraction unbound at 0.5 h, 20 ng/ml [22]: 0.708
fraction unbound at 0.5 h, 2000 ng/ml [23]: 0.736
Activity (Cytochrome P450 3A4 [24]): Not Active
AUC (Canis familiaris [26]): 824 ng·h/mL
IC50 (Cytochrome P450 2D6): > 10 µM
clearance [27]: 10.8 mL/min/kg
Activity (Cytochrome P450 1A2 [30]): Not Active
CLint scaled [31]: 23.3 mL/min/kg
half-life [32]: 1.9 h
Cmax [33]: 14 nM
IC50 (Cytochrome P450 1A2 [35]): > 10 µM
IC50 (Cytochrome P450 3A4 [36]): > 10 µM
IC50 (Dipeptidyl peptidase 9): 60 µM
AUC (Rattus norvegicus [38]): 1160 ng·h/mL
Tmax [39]: 2.3 h
Cmax [40]: 62 ng/mL
IC50 (Cytochrome P450 2C9 [41]): > 10 µM
CLint scaled [42]: 1.67 mL/min/kg
Structure (SMILES): Cc1cc2ncc(C(=O)NCC(C)(C)NCC(=O)N3CCC[C@H]3C#N)cn2n1.Cl [ANAGLIPTIN HYDROCHLORIDE]
Activity (Salmonella typhimurium): Non-toxic
inhibition in vivo at 0.1 mg/kg (Rattus norvegicus [2]): 30%
inhibition in vivo at 3 mg/kg (Rattus norvegicus [4]): 95%
dose excreted at 24 h [7]: 13%
IC50 [10]: > 500 µM
dose excreted at 24 h [25]: 32%
dose excreted at 24 h [28]: 30%
dose excreted at 24 h [29]: 41%
dose excreted at 24 h [34]: 14%
dose excreted at 24 h [37]: 24%
